Measurements from PMC2637266, “Quantification of gamma-secretase modulation differentiates inhibitor compound selectivity between two substrates Notch and amyloid precursor protein” (Molecular Brain, 2008).
“And” between values parts separate entries of the source, which are not always exact repeats. Identical values can stand only once. Like-named read-outs stand apart in the source and are kept apart here.

Assays:
[1] = tested on: NICD dependent luciferase activity (Hes-1 reporter); experiment: Hes-Luc luciferase reporter assay in HEK293 cells co-transfected with NotchΔE; format: cell-based, human; settings: at concentrations that completely blocked Aβ generation
Experimental: (§1) Figure 2 Generation of NICD and Aβ from NotchΔE and APP expressing cells. A. Twenty four hrs after the construct carrying NotchΔE was transfected into APP expressing HEK293 cells, cells were treated with DAPT or cpd E for 8 hr and lysed for WB with antibody 1744 to specifically detect the N-terminus of NICD. Bottom panel, the antibody against α-tubulin was applied to normalize the amounts of lysates used for WB. B. Levels of NICD determined by WB were quantified by densitometry (dotted line). Levels of Aβ generated from the γ-secretase cleavage of APP in the presence of DAPT were determined by ELISA. […] C. NICD (dotted line) and Aβ (solid line) production from cpd E-treated cells were compared. […] D. A luciferase reporter construct driven by HES1 promoter was transfected into HEK293 cells followed by treatment with cpd E or DAPT.
Semi-quantification of NICD levels was detected by WB, and the inhibition profile of DAPT (Fig. 2B) and cpd E (Fig. 2C) were compared on NICD and Aβ generation in cultured cells. […] Since Notch signaling and levels of NICD can be examined by quantifying the expression of the Notch target gene, a Hes-1 reporter construct (Hes-Luc) was generated by insertion of three Su(H) binding sequences in the pGL3-pro luciferase reporter vector. […]

[2] = tested on: Notch target gene her6; experiment: Whole mount in situ hybridization of Notch target gene her6 in treated zebrafish embryos; format: in vivo
Source text: To examine the effect of DAPT and cpd E on Notch signaling, embryos treated with different concentrations of DAPT or cpd E were stained by whole mount in situ hybridization using a her6 probe (Fig 5). The expression level of Notch downstream target gene her6 correlates to the levels of Notch signaling, i.e., a loss of her6 staining corresponds to an inhibition of γ-secretase mediated Notch signaling. We have focused on the specific effect of γ-secretase inhibitors on Notch signaling in brain region.
Figure 5 Expression levels of Notch target gene her6 are consistent with the curvature phenotype. Increasing concentrations of DAPT or cpd E were applied to de-chorionated zebrafish embryos from 24 hpf until 48 hpf, and in situ hybridization of compound-treated embryos was carried out at 48 hpf using the her6 probe. At least 10 to 20 embryos were examined for each experiment. Images were taken at the 64× magnification for stained embryos.
In situ hybridization of compound-treated embryos was carried out at 2 dpf according to standard protocols using the her6 probe. Single-stranded RNA probes against her6 were synthesized from a cDNA clone (provided by Dr. P Raymond, University of Michigan, Ann Arbor, MI) using T7 RNA polymerase after linearization by restriction digest. The probe was then labeled with digoxigenin-UTP (Roche, Basel, Switzerland). At least 10 to 20 embryos were examined for each experiment. Images were taken at 64× magnification for stained embryos.

[3] = molecular target: T1, γ-secretase cleavage of NotchΔE (Homo sapiens, UniProt P49768); experiment: NICD generation in NotchΔE transfected HEK293 cells, Western blot; format: cell-based; settings: for NICD generation in cultured cells: high doses
T1 construct: endogenous in cells; host or cells: HEK293 stably expressing Swedish mutant human APP695, transiently transfected with NotchΔE
Experimental: (§2) Since many compounds could behave differently in vitro versus in culture cells, cpd E and DAPT were tested in cultured cells (Fig. 2). HEK293 cells stably expressing Swedish mutant APP were transiently transfected with NotchΔE, a truncated Notch construct that is readily cleaved by the γ-secretase to generate NICD for downstream signaling transduction. NotchΔE expressing cells were treated with increasing concentrations of DAPT or cpd E. Cell lysates were subjected to WB for measuring the generation of NICD (Fig. 2A), and conditioned media were collected for Aβ measurement by ELISA (Fig. 2B,C).
as §1
The cDNA construct NotchΔE has a c-myc tag and is a truncated Notch molecule that is an immediate substrate for γ-secretase cleavage to generate Notch intracellular domain (NICD). Two chimeric cDNA constructs express […] the juxtamembrane portion of the APP ectodomain (the α-secretase cleavage region) replaced by the corresponding sequence in Notch (APP-α-NOTCH). These cDNA constructs were provided by Dr. Dennis Selkoe. Hes-1 reporter construct (Hes-Luc) was generated by insertion three of Su(H) binding sequence
Human embryonic kidney (HEK) 293 cells stably expressing Swedish mutant human APP695 were transfected with different cDNA constructs and maintained in 200 μg/ml G418 (Invitrogen, Carlsbad, CA). Transfected cells were treated with two γ-secretase inhibitors cpd E or DAPT for 8 hr. Conditioned media were collected for ELISA, and cell lysates were analyzed by Western blot as described. Cells co-transfected with Hes-Luc and NotchΔE were treated with compounds followed by the measurement of luciferase activity (Luciferase Assay System, Promega, Madison, WI).

[4] = molecular target: T2, γ-secretase cleavage of APP (Homo sapiens, UniProt P49768); experiment: Aβ in conditioned media of APP expressing HEK293 cells transfected with NotchΔE, ELISA; format: cell-based; settings: for IC50: HEK293, 8 hr treatment; for Aβ levels in cultured cells: high doses
T2 construct: endogenous in cells; host or cells: HEK293 stably expressing Swedish mutant human APP695, transiently transfected with NotchΔE
Experimental: as §2, §1
Sandwich ELISAs for Aβ were performed as described. The capture antibodies, 2G3 (to Aβ residues 33–40) and 4G8 (to Aβ residues 17–24), were used for Aβ40 and Aβ total species, respectively. The detecting antibodies were biotinylated 82E1 (to Aβ residues 1–16) for Aβ1–40/total or biotinylated 266 for Aβx-40 species. The use of mid-region and C-terminal capturing antibodies and N-terminal detecting antibody for chimeric "Notch-Aβ-like" peptide (Nβ*) has been documented. The combination of several capture/detecting antibodies are use to measure Aβ and Nβ* derived from different precursors. The capture antibody 2G3 and detecting antibody 82E1 were used for measuring Nβ* from APP-α-Notch expressing cells. Since the APP-α-NOTCH is the fusion protein with its juxtamembrane portion of the APP ectodomain (the α-secretase cleavage region) replaced by the corresponding sequence in Notch, the epitopes in APP sequence could still be recognized by 2G3 (C-terminus) and 82E1 (N-terminus). […]
Human embryonic kidney (HEK) 293 cells stably expressing Swedish mutant human APP695 were transfected with different cDNA constructs and maintained in 200 μg/ml G418 (Invitrogen, Carlsbad, CA). […] Conditioned media were collected for ELISA, and cell lysates were analyzed by Western blot as described. […]

Row | Structure (SMILES) | luciferase activities remained [1] | her6 expression ([2]; 0.5 μM, 24 hpf until 48 hpf) | her6 expression ([2]; 5 μM, 24 hpf until 48 hpf) | her6 expression ([2]; 50 μM, 24 hpf until 48 hpf) | Notch cleavage reduced to, cell culture based assay ([3]; 1 μM or higher) | EC50 ([3]; Fig. 2B and 2C, read-out: EC50 to reduce NICD generation in cultured cells) | NICD generation in cultured cells [3] | IC50 ([4]; read-out: concentration inhibiting levels of Aβ to 50% in cultured cells) | Aβ levels in cultured cells [4] | her6 expression ([2]; highest testing doses) | EC50 ([3]; EC50 for the inhibition of NICD generation in cultured cells, Fig. 2) | EC50 ([3]; EC50 to reduce NICD generation in cultured cells, Fig. 2B and 2C) | IC50 ([4]; IC50 for Aβ generation (levels of Aβ reduced to 50%) in cultured cells)
1 | C[C@H](NC(=O)Cc1cc(F)cc(F)c1)C(=O)N[C@H](C(=O)OC(C)(C)C)c1ccccc1 [DAPT, N-[N-(3,5-Difluorophenacetyl-L-alanyl)]-S-phenylglycine t-Butyl Ester] | about 50% | very similar staining pattern to the control embryos | staining of her6 started to appear | significantly reduced or disappeared in most areas | about 50% | ~1000 nM | could not completely eliminate NICD generation | ~500 nM | efficiently reduced to almost undetectable levels | – | – | – | –
2 | C[C@H](NC(=O)Cc1cc(F)cc(F)c1)C(=O)N[C@H]1N=C(c2ccccc2)c2ccccc2N(C)C1=O [cpd E, (S,S)-2-[2-(3,5-Difluorophenyl)-acetylamino]-N-(1-methyl-2-oxo-5-phenyl-2,3-dihydro-1H-benzo [e] [1,4]diazepin-3-yl)-propionamide] | about 50% | – | – | slightly reduced expression level of her6 gene | – | – | could not completely eliminate NICD generation | – | efficiently reduced to almost undetectable levels | reduction of her6 staining | < 100 nM | 10 nM | ~8 nM and 5 nM
